One compound from US20190038628A1, “USE OF INHIBITORS OF THE ACTIVITY OR FUNCTION OF PI3K FOR THE TREATMENT OF PRIMARY SJOGREN'S SYNDROME” (Novartis AG, priority 2016, published 2019) can be followed below.

By inhibition is commonly meant the drop in the measured response relative to a control, in per cent. A higher inhibition goes with strong suppression. The term IC50 denotes the concentration needed to halve the response being measured.

What all share (type): cell-based
Test [1] relates to Human Peripheral Blood Mononuclear Cells (PBMC). Description: anti-IgM-Dextran-induced IP-10 production of human PBMC. As to conditions: for IP-10 in culture supernatant: individual donors 1-6; for IP-10 in culture supernatant, mean: mean of 6 donors. From the text:
For evaluating the effect of compound A on the production of chemokines relevant for the formation of germinal centers, PBMC were isolated from Buffy Coat (collected through Inter-Regionale Blutspende of the Swiss Red Cross) by standard Ficoll gradient centrifugation using Ficoll-Paque plus (GE healthcare #17-1440-03) in Leucosep tubes (Greiner Bio-one #227289). Cells were washed two times with PBS and then resuspended at 2.2×10^6/mL in RPMI 1640 medium supplemented with 10% FBS, Gentamycine (50 ug/ml), Insulin-Transferrin-Selenium and P-Mercaptoethanol (50 uM).
PBMC were dispensed to 48-well plates (Costar #3548) and incubated with pre-diluted compound A resulting in a dilution with a final concentration of 0.3, 1 or 3 uM. Control samples were pretreated with DMSO to obtain a final concentration of 0.03% DMSO. Samples were mixed thoroughly and incubated in a humified incubator at 37° C. for 1 h. Cells were thereafter stimulated by the addition of the TLR9 agonist ODN M362 (Invivogen, #tlrl-m362) at a final concentration of 30 ug/ml or anti-IgM-Dextran (Finabiosolution #0004) at a final concentration of 2 ug/ml. Control samples were left unstimulated. Samples were mixed thoroughly and incubated in a humified incubator at 37° C. for 24 h.
After the stimulation, culture supernatants were harvested and chemokines quantified by Bio-Plex Multiplex immunoassay (CXCL13; Bio Rad #171 BK12MR2) or MSD V-Plex assay (IP-10; Meso Scale Diagnostics) or according to the manufacturer's instructions.

Test [2] has as its system BPMC derived from human healthy volunteers. Description: Chemokines in supernatant of PBMC from healthy volunteers stimulated with CpG or anti-IgM (summary statement). From the text: Phosphorylated Akt (pAkt) is a downstream effector of PI3K delta activation. 1-{(S)-3-[6-(6-Methoxy-5-trifluoromethyl-pyridin-3-yl)-5,6,7,8-tetrahydro-pyrido[4,3-d]pyrimidin-4-ylamino]-pyrrolidin-1-yl}-propan-1-one or pharmaceutically acceptable salts thereof is a PI3K inhibitor with a selectivity for the PI3K delta isoform (WO2012/004299). […] 1) Chronic B-cell hyperactivity is a consistent and prominent immunoregulatory abnormality in pSS (Hansen A et al, Arthritis Research & Therapy 2007; 9; 218). […] 1-{(S)-3-[6-(6-Methoxy-5-trifluoromethyl-pyridin-3-yl)-5,6,7,8-tetrahydro-pyrido[4,3-d]pyrimidin-4-ylamino]-pyrrolidin-1-yl}-propan-1-one or pharmaceutically acceptable salts thereof inhibits CXCL13 (BCA-1, BLC), but also of CXCL10 (IP-10) and CCL4 (MIP-1beta) in supernatant of BPMC derived from human healthy volunteers stimulated with CpG or anti-IgM. • 3) Characteristic features in pSS include the formation of ectopic lymphoid tissue with germinal center (GC)-like structures. In healthy individuals, GCs are generated from primary B-cell follicles of secondary lymphoid organs during T-cell-dependent immune responses (Hansen A et al, Arthritis Research & Therapy 2007; 9; 218).

Test [3] relates to Mouse BCR transgenic B cells. Briefly: Proinflammatory cytokine release of mouse BCR transgenic B cells. The following applies: Mouse BCR tg B cell, stimulus HEL, mean of at least two experiments. From the text:
Purification of CD19^+ splenic B cells from MD4 HEL BcR Tg mice MD4 HEL BcR transgenic B10.BR (MD4 B10.BR) mice were a kind gift from Prof. Jose Moreno (Research Unit on Autoimmune Diseases, Centro Medico Nacional Siglo XXI, Mexico).
The spleens were isolated from MD4 B10.BR and non-transgenic litter control B10.BR mice after sacrificed by exposure to excess amount of isoflurane. The isolated spleens were suspended in RPMI1640 (Invitrogen, #31870), and dissociated by GentleMACS Dissociator (Miltenyi Biotec), and filtrated with Cell Strainer (BD Falcon, 70 μm mesh, #352350). […] The purity was determined via the proportion of CD19 cells in the separated fraction in FACS analysis, and was more than 95%.
FACS Data was analyzed, and their mean fluorescence intensity (MFI) were calculated with FlowJo software (Tree Star Inc). The IC50 values were calculated with GraphPad PRISM ver 6.0 software (GraphPad Software Inc).
One million of B cells purified from MD4 B10.BR as written in the section 2.1 was suspended in 200 μl of complete culture medium, and stimulated with 100 μM of HEL proteins with soluble CD40 ligand at 37° C., 5% CO2 for 48 hours. […] The data are represented as the mean of concentration (pg/ml) from triplicate samples, and IC50 values are calculated as described above. […]

For test [4], the system named is Murine B cells. Description: Mouse B cell proliferation following BCR stimulation. The following applies: Mouse spleen, stimulus Anti-IgM, mean of at least two experiments. As for the experimental part:
Murine B cells were stimulated via BCR by anti-IgM antibody in the presence of titrated amounts of compounds as described in (Julius et al 1984) and proliferation was assessed by incorporation of radioactive ^3H-Thymidine.

SMILES strings stand for the structures. Values joined by “and” are separate entries in the source; they are usually repeats but may differ in a detail not shown here. Equal values may be shown once. Read-outs that look alike come from different tables or passages of the source.

For the compound `CCC(=O)N1CC[C@H](Nc2ncnc3c2CN(c2cnc(OC)c(C(F)(F)F)c2)CC3)C1` [Compound A, 1-{(S)-3-[6-(6-Methoxy-5-trifluoromethyl-pyridin-3-yl)-5,6,7,8-tetrahydro-pyrido[4,3-d]pyrimidin-4-ylamino]-pyrrolidin-1-yl}-propan-1-one], the “IP-10 in culture supernatant” value in test [1] (Compound A 300 nM) is 79 pg/mL and 32 pg/mL and 37 pg/mL and 1233 pg/mL and 52 pg/mL and 2764 pg/mL; in test [1] (Compound A 1000 nM), 71 pg/mL and 29 pg/mL and 42 pg/mL and 1010 pg/mL and 52 pg/mL and 1624 pg/mL; in test [1] (Compound A 3000 nM), 93 pg/mL and 27 pg/mL and 34 pg/mL and 899 pg/mL and 59 pg/mL and 715 pg/mL. For the same compound, the figures for the “IP-10 in culture supernatant, mean” value in test [1] (Compound A 300 nM), in test [1] (Compound A 1000 nM) and in test [1] (Compound A 3000 nM) were 699 pg/mL, 471 pg/mL and 305 pg/mL, respectively. In test [1] (Homo sapiens, PBMC, Compound A 300 nM), this compound registered an inhibition at 0.3 µM of 12%. The inhibition at 1 µM in test [1] (Homo sapiens, PBMC, Compound A 1000 nM) was 41%. For the same compound, the inhibition at 3 µM in test [1] (Homo sapiens, PBMC, Compound A 3000 nM) was determined as 62%. Moreover, in test [2], the “CCL4 (MIP-1beta) in supernatant (in words)” value is reported as “inhibits”. Besides, the “CXCL10 (IP-10) in supernatant (in words)” value in test [2] is “inhibits”. Moreover, the “CXCL13 (BCA-1, BLC) in supernatant (in words)” value in test [2] is recorded as “inhibits”. In addition, the IC50 was found to be 22 nM in test [3] (read-out: IC50 IL-6), 28 nM in test [3] (read-out: IC50 TNFα) and 8 nM in test [4].
